US20250041279A1, “THERAPEUTIC MEDICINE FOR HEART DISEASE OR SKELETAL MUSCLE DISEASE” (SHIONOGI & CO., LTD., priority 2021, published 2025)
Read-outs that look alike come from different tables or passages of the source.

Experiments:
[1] = Metabolic stability test, human liver microsomes; format: in vitro ADME; conditions: 37° C., 30 minutes, NADPH
Procedure: Commercially available pooled human liver microsomes were reacted with the compound of the present invention for a given time. A residual rate was calculated by comparison between the reacted sample and the unreacted sample to evaluate a degree at which the compound of the present invention is metabolized in the liver.
The compound was reacted at 37° C. for 0 minutes or 30 minutes in the presence of 1 mmol/L NADPH in 0.2 mL of a buffer (50 mmol/L Tris-HCl pH 7.4, 150 mmol/L potassium chloride, and 10 mmol/L magnesium chloride) containing 0.5 mg protein/mL of the human liver microsomes (oxidative reaction). After the reaction, 50 μL of the reaction solution was added to 100 μL of a solution of methanol/acetonitrile=1/1 (v/v) and mixed, and the mixture was centrifuged at 3000 rpm for 15 minutes. The compound of the present invention in the centrifuged supernatant was quantified by LC/MS/MS or solid-phase extraction (SPE)/MS. The amount of the compound of the present invention remained after the reaction was calculated with the amount of the compound at 0 minutes of the reaction defined as 100%.

recombinant human ACC1 = recombinant human ACC1 (Homo sapiens (Human), UniProt Q13085); experiment: Measurement of inhibitory activity of human ACC1 (MALDI-TOF MS); format: biochemical; conditions: read-out: IC50 hACC1
Excerpt: A cDNA encoding human ACC1 protein (1 amino acid residue to 2346 amino acid residues from the N-terminus) was cloned from a human liver cDNA library (BioChain Institute Inc.), myc tag and His-tag sequences were introduced at the 3′ end, and then inserted into pIEXBAC3 (Novagen). A recombinant baculovirus was produced in accordance with the protocol for Flash BACGOLD (Oxford Expression Technologies Ltd.), and Sf-9 cells were infected therewith to express human ACC1 protein. The recovered cells were crushed, filtered through a filter, and then subjected to Ni affinity chromatography and anion exchange chromatography. Fractions containing human ACC1 protein were collected to obtain recombinant human ACC1.
The recombinant human ACC1 and the recombinant human ACC2 obtained from the above Preparation Examples were preincubated in an assay buffer (50 mM HEPES-KOH (pH 7.4), 10 mM magnesium chloride, 6 to 10 mM potassium citrate, 4 mM glutathione reduced form, and 1.5 mg/ml bovine serum albumin) for 1 hour. Then, 5 μL of the pre-incubated enzyme solution and 5 μL of a substrate solution (50 mM HEPES-KOH (pH 7.4), 1 mM ATP, 0.8 mM acetyl-CoA, and 25 to 50 mM potassium bicarbonate) were added to a 384-well microplate into which 0.2 μl of each of solutions of the compound of the present invention (DMSO had been dispensed, and the mixture was centrifuged and shaken, and then incubated in a wet box at room temperature for 1 to 3 hours. After incubation, the enzymatic reaction was stopped by addition of EDTA, and then the sample was co-crystallized with an α-cyano-4-hydroxy cinnamic acid (CHCA) matrix on a MALDI target plate, and measurement was performed in a reflector negative mode using a matrix-assisted laser desorption ionization-time-of-flight mass spectrometer (MALDI-TOF MS). Deprotonated ions of the substrate acetyl-CoA (AcCoA) and the reaction product malonyl-CoA (MalCoA) were detected, and the intensity of each signal was used to calculate a conversion rate to malonyl-CoA or succinyl-CoA, i.e., intensity of [MalCoA-H]—/(intensity of [MalCoA-H]-+intensity of [AcCoA.H].). […] The potassium citrate concentration in the assay buffer, the potassium bicarbonate concentration in the substrate solution, and the incubation time were adjusted within the above concentrations or reaction times for each lot of the enzyme to be used.

[2] = Metabolic stability test, rat; format: in vitro ADME; conditions: 30 minutes
recombinant human ACC2 = recombinant human ACC2 (Homo sapiens (Human), UniProt O00763); experiment: Measurement of inhibitory activity of human ACC2 (MALDI-TOF MS); format: biochemical; conditions: read-out: IC50 hACC2
Excerpt: A cDNA encoding human ACC2 protein (27 amino acid residues to 2458 amino acid residues from the N-terminus) was cloned from a human kidney cDNA library (Clontech Laboratories, Inc.), a His-tag sequence was introduced at the 5′ end, and then inserted into pFastBac1 (Invitrogen). A recombinant baculovirus was produced in accordance with the protocol for a Bac-to-Bac baculovirus expression system (Invitrogen), and Sf-9 cells were infected therewith to express human ACC2 protein. The recovered cells were crushed, filtered through a filter, and then subjected to Ni affinity chromatography and anion exchange chromatography. Fractions containing human ACC2 protein were collected to obtain recombinant human ACC2.
The recombinant human ACC1 and the recombinant human ACC2 obtained from the above Preparation Examples were preincubated in an assay buffer (50 mM HEPES-KOH (pH 7.4), 10 mM magnesium chloride, 6 to 10 mM potassium citrate, 4 mM glutathione reduced form, and 1.5 mg/ml bovine serum albumin) for 1 hour. […] Deprotonated ions of the substrate acetyl-CoA (AcCoA) and the reaction product malonyl-CoA (MalCoA) were detected, and the intensity of each signal was used to calculate a conversion rate to malonyl-CoA or succinyl-CoA, i.e., intensity of [MalCoA-H]—/(intensity of [MalCoA-H]-+intensity of [AcCoA.H].). […] The potassium citrate concentration in the assay buffer, the potassium bicarbonate concentration in the substrate solution, and the incubation time were adjusted within the above concentrations or reaction times for each lot of the enzyme to be used.

NAFLD patients = conditions: cited from earlier work
healthy subjects = conditions: repeated administration to healthy subjects; cited from earlier work

recombinant human ACC2, sequence (O00763 27-2458): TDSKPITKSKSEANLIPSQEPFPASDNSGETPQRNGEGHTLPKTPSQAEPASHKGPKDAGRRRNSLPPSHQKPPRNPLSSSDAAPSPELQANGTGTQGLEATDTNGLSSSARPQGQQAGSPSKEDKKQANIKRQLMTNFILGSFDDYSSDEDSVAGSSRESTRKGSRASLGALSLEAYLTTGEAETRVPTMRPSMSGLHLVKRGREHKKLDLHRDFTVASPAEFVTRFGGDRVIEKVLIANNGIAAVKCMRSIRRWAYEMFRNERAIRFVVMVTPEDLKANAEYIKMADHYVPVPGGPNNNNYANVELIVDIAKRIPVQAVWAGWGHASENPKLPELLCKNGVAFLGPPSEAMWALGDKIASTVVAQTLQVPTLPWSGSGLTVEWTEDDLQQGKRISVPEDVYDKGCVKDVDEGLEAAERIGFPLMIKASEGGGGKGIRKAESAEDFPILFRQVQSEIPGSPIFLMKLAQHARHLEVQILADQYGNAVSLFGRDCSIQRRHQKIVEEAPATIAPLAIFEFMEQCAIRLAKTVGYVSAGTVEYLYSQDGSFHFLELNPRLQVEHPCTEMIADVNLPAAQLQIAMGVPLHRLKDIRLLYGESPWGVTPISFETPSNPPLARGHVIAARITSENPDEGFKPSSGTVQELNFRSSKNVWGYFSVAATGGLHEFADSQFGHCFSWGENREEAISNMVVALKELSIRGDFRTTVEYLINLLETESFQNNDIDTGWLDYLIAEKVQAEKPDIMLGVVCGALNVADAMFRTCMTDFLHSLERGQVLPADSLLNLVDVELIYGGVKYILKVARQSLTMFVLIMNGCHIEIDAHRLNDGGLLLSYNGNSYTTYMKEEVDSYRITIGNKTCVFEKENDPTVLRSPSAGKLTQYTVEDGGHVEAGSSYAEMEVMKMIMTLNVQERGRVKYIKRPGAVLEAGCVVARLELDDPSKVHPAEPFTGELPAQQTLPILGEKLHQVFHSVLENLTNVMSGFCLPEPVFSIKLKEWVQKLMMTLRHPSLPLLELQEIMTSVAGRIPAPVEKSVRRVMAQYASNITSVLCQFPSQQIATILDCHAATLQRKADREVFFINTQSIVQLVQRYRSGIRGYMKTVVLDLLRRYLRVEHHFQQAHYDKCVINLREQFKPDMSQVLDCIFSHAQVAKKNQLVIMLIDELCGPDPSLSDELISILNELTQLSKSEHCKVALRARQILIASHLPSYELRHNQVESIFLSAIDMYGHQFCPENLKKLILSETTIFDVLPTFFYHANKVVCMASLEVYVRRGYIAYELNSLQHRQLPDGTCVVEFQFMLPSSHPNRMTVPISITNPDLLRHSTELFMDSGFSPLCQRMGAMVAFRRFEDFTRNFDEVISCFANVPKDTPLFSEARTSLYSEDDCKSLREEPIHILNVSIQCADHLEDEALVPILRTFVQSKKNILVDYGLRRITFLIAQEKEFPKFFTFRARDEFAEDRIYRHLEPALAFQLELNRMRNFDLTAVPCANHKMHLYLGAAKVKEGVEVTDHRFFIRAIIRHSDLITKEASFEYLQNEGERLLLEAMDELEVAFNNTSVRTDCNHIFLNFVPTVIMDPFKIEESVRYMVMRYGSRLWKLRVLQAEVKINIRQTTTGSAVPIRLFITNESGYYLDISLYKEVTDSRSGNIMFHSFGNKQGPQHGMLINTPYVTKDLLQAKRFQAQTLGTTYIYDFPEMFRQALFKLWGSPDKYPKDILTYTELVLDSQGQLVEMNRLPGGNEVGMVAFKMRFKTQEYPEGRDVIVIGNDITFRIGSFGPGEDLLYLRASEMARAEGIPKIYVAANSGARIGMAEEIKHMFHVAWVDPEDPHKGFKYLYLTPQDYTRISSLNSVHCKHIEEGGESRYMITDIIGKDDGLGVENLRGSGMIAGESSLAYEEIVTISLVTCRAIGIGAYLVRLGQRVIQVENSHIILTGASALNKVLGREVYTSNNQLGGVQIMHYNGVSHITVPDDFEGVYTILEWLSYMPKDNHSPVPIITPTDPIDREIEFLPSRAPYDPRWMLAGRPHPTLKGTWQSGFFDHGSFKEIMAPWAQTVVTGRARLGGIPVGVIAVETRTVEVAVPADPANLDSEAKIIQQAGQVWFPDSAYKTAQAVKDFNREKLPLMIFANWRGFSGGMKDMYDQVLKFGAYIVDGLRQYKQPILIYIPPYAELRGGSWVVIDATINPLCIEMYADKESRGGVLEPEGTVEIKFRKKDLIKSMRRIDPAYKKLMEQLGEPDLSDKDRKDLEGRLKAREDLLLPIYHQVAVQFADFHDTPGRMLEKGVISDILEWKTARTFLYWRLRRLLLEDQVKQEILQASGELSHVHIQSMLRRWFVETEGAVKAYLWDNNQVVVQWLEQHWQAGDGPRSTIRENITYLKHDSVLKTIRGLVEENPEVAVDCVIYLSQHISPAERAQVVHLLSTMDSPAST

Remaining amount of compound, Human [1] [%]	IC50 (recombinant human ACC1) [nM]	Remaining amount of compound, Rat [2] [%]	IC50 (recombinant human ACC2) [nM]	SMILES	Plasma triglyceride concentration (NAFLD patients; phase II study over 12 weeks)	platelet concentration (healthy subjects)	Plasma triglyceride concentration (NAFLD patients)
89.1	25000	74.7	180	CC(=O)N[C@@H](C)C(F)(F)C[C@H]1CCC(Oc2nc3c(F)cc(OCC(F)F)c(F)c3n2C)CO1 (stereo partly drawn) [Compound I-7]	–	–	–
83.6	6200	85.4	17	C[C@@H](COC1CCC(Oc2nc3c(Cl)cc(OC4CC4)cc3n2C)CC1)NC(N)=O (stereo partly drawn) [Compound I-8]	–	–	–
–	–	–	–	COc1ccccc1[C@H](Cn1c(=O)n(C(C)(C)C(=O)O)c(=O)c2c(C)c(-c3ncco3)sc21)OC1CCOCC1 [firsocostat]	elevated	–	–
98.9	6900	83.4	8.9	Cn1c(OC2CCC(OC[C@H](CF)NC(N)=O)CC2)nc2c(F)cc(OC3CC3)cc21 (stereo partly drawn) [Compound I-5]	–	–	–
–	320	–	–	CC(=O)N[C@@H](C)COC1CCC(Oc2nc3c(F)cc(OC4CCC4)cc3n2C)CC1 (stereo partly drawn) [Compound I-1]	–	–	–
–	> 100000	–	89	CC(=O)N[C@@H](C)CC(F)(F)[C@@H]1CCC(Oc2nc3c(F)cc(OCC(F)F)c(F)c3n2C)CO1 (stereo partly drawn) [Compound I-10]	–	–	–
–	–	–	–	Cc1nc2ccc(C(=O)N3CCC4(CC3)CC(=O)c3c(cnn3C(C)C)C4)cc2[nH]1 [PF-05175157]	–	reduced	–
80.2	1700	76.2	3.8	CC(=O)N[C@@H](C)CCC1CCC(Oc2nc3c(F)cc(OC4CC4)cc3n2C)CC1 (stereo partly drawn) [Compound I-15]	–	–	–
93.4	2700	87.3	4.7	CC(=O)N[C@@H](CF)COC1CCC(Oc2nc3c(F)cc(OC4CC4)cc3n2C)CC1 (stereo partly drawn) [Compound I-4]	–	–	–
–	–	–	–	COc1cc(C(=O)N2CCC3(CC2)CC(=O)c2cc(-c4cncc(C(=O)O)c4)ccc2O3)cc2c1c(C)cn2C1CC1 [MK-4074]	–	–	elevated
80.3	2800	82.6	–	CC(=O)N[C@@H](C)COC1CCC(Oc2nc3c(Cl)cc(OC4CC4)cc3n2C)CC1 (stereo partly drawn) [Compound I-3]	–	–	–
95.8	7000	94.5	9.6	C[C@@H](CCC1OCC(Oc2nc3c(F)cc(OCC(F)F)c(F)c3n2C)CO1)NC(N)=O (stereo partly drawn) [Compound I-11]	–	–	–
